The values that follow are results of earlier work, collected in patent US20070196413A1, “Surfactant enhanced quick release pesticide granules” (priority 2003, published 2007).

Where two headings read alike, the source gives them in different places.

For `CNC(=O)CSP(=S)(OC)OC` [Cygon, dimethoate], the “Time to lose 50 percent of pest control power” value is, setting by setting: (mixed in water of pH 9) 48 min; (pH of 6) 720 min.
